For 40 molecules, T1/2 results are on record in ChEMBL document CHEMBL1124371, “A novel solution-stable, water-soluble prodrug type for drugs containing a hydroxyl or an NH-acidic group” (J Med Chem, 1989).

The data set is filed under the species Homo sapiens. The data set can be described thus: Ester prodrugs: T1/2 in human plasma. The data set is classed as ADME.

For `C[C@H]1CC2C(C(O)CC3(C)C2CC[C@]3(O)C(=O)COC(=O)c2cccc(CN(C)CCN(C)C)c2)C2(C)C=CC(=O)C=C12` (stereo not given in full), under “human, in vitro”, the T1/2 was 18 min.
For the molecule `CCN(CC)CCN(CC)Cc1cccc(C(=O)OCC(=O)[C@@]2(O)CCC3C4CCC5=CC(=O)CCC5(C)C4C(O)CC32C)c1` (stereo not given in full), the T1/2 (human, in vitro) turned out to be 8 min.
In the case of `CCN(CC)Cc1cccc(C(=O)OCC(=O)[C@@]2(O)CCC3C4CCC5=CC(=O)CCC5(C)C4C(O)CC32C)c1` (stereo not given in full), under “human, in vitro”, the T1/2 is given as 34 min.
As to `CN1CCN(Cc2cccc(C(=O)OCC(=O)[C@@]3(O)CCC4C5CCC6=CC(=O)CCC6(C)C5C(O)CC43C)c2)CC1` (stereo not given in full), for the setting “human, in vitro”, the T1/2 stood at 15 min.
Still for that read-out and setting: with `Cc1ncc([N+](=O)[O-])n1CCOC(=O)c1cccc(CN2CCN(C)CC2)c1` the figure was 0.6 min; with `Cc1ncc([N+](=O)[O-])n1CCOC(=O)c1ccc(CN(C)C)cc1`, 4.7 min; with `CCN(CC)Cc1ccc(C(=O)OCC(=O)[C@@]2(O)CCC3C4CCC5=CC(=O)CCC5(C)C4C(O)CC32C)cc1` (stereo not given in full), 107 min.
On the same count and under the same terms, next, `CN1CCN(Cc2cccc(C(=O)OCC(NC(=O)C(Cl)Cl)C(O)c3ccc([N+](=O)[O-])cc3)c2)CC1` (stereo not given): 5 min.
On to `CC(=O)Nc1ccc(OC(=O)c2cccc(CN3CCOCC3)c2)cc1`, for which, for the setting “human, in vitro”, the T1/2 worked out at 56 min.
The same measure, in the same setting: next, `Cc1ncc([N+](=O)[O-])n1CCOC(=O)c1cccc(CN2CCOCC2)c1`: 5 min.
The same measure, in the same setting: next, `CCN(CC)Cc1cccc(C(=O)OCN2C(=O)NC(c3ccccc3)(c3ccccc3)C2=O)c1`: 20 min; `CCN(CC)Cc1cccc(C(=O)OCn2cnc3c2c(=O)n(C)c(=O)n3C)c1`: 0.4 min; `O=C(OCn1ncc2c(=O)[nH]cnc21)c1cccc(CN2CCOCC2)c1`: 8.5 min.
Turning to `Cc1ncc([N+](=O)[O-])n1CCOC(=O)c1ccc(CN2CCOCC2)cc1`, the T1/2 (human, in vitro) came to 0.4 min.
Same read-out and setting: next, `Nc1nc(O)c2ncn(COCCOC(=O)c3ccc(CN4CCOCC4)cc3)c2n1`: 3.7 min; `CN1CCN(Cc2cccc(C(=O)OCn3ncc4c(=O)[nH]cnc43)c2)CC1`: 0.5 min; `CCN(CC)CCN(CC)Cc1cccc(C(=O)Oc2ccc(NC(C)=O)cc2)c1`: 15 min.
Same read-out and setting: with `CCN(CC)Cc1cccc(C(=O)OCC(NC(=O)C(Cl)Cl)C(O)c2ccc([N+](=O)[O-])cc2)c1` (stereo not given) the figure was 8 min; with `C[C@H]1CC2C(C(O)CC3(C)C2CC[C@]3(O)C(=O)COC(=O)c2cccc(CN3CCN(C)CC3)c2)C2(C)C=CC(=O)C=C12` (stereo not given in full), 29 min; with `CNCc1cccc(C(=O)OCC(=O)[C@@]2(O)CCC3C4CCC5=CC(=O)CCC5(C)C4C(O)CC32C)c1` (stereo not given in full), 25 min.
As to `CN1CCN(Cc2ccc(C(=O)OCn3ncc4c(=O)[nH]cnc43)cc2)CC1`, the T1/2 (human, in vitro) came to 11 min.
In the case of `Cn1c(=O)c2c(ncn2COC(=O)c2cccc(CN3CCOCC3)c2)n(C)c1=O`, for the setting “human, in vitro”, the T1/2 was found to be 2.8 min.
On the same count and under the same terms, next, `CC(=O)Nc1ccc(OC(=O)c2ccc(CN(C)C)cc2)cc1`: 87 min; `CN1CCN(Cc2cccc(C(=O)OCC(=O)[C@@]3(O)CCC4C5CCC6=CC(=O)C=CC6(C)C5C(O)CC43C)c2)CC1` (stereo not given in full): 18 min.
`CN1CCN(Cc2ccc(C(=O)OCC(=O)[C@@]3(O)CCC4C5CCC6=CC(=O)CCC6(C)C5C(O)CC43C)cc2)CC1` (stereo not given in full): the T1/2 (human, in vitro) is 147 min.
Same read-out and setting: with `CC12CCC(=O)C=C1CCC1C2C(O)CC2(C)C1CC[C@]2(O)C(=O)COC(=O)c1cccc(CN2CCOCC2)c1` (stereo not given in full) the figure was 62 min; with `CC12CCC(=O)C=C1CCC1C2C(O)CC2(C)C1CC[C@]2(O)C(=O)COC(=O)c1ccc(CN2CCOCC2)cc1` (stereo not given in full), 92 min.
Regarding `CN(C)Cc1ccc(C(=O)OCn2ncc3c(=O)[nH]cnc32)cc1`, where the note is “human, in vitro”, the T1/2 turned out to be 9.4 min.
For the molecule `O=C(OCn1ncc2c(=O)[nH]cnc21)c1cccc(Cn2ccnc2)c1`, the T1/2 (human, in vitro) worked out at 3.6 min.
Turning to `CCCNCc1cccc(C(=O)OCC(=O)[C@@]2(O)CCC3C4CCC5=CC(=O)CCC5(C)C4C(O)CC32C)c1` (stereo not given in full), the T1/2 (human, in vitro) is 38 min.
Same read-out and setting: with `CC(=O)Nc1ccc(OC(=O)c2cccc(CN3CCN(C)CC3)c2)cc1` the figure was 27 min; with `CN1CCN(Cc2cccc(C(=O)OCn3cnc4c3c(=O)n(C)c(=O)n4C)c2)CC1`, 0.4 min.
On the same count and under the same terms, with `Cn1c(=O)c2c(ncn2COC(=O)c2cccc(Cn3ccnc3)c2)n(C)c1=O` the figure was 0.9 min.
In the case of `CCN(CC)Cc1cccc(C(=O)OCn2c(=O)oc3ccc(Cl)cc32)c1`, the T1/2 amounted to 28 min.
Turning to `CCN(CC)CCN(CC)Cc1cccc(C(=O)OCC(NC(=O)C(Cl)Cl)C(O)c2ccc([N+](=O)[O-])cc2)c1` (stereo not given), under “human, in vitro”, the T1/2 turned out to be 0.9 min.
Same read-out and setting: next, `Cc1ncc([N+](=O)[O-])n1CCOC(=O)c1ccc(CN2CCN(C)CC2)cc1`: 2.4 min; `CN1CCN(Cc2cccc(C(=O)OCN3C(=O)NC(c4ccccc4)(c4ccccc4)C3=O)c2)CC1`: 7 min.
Same read-out and setting: with `O=C(OCC(NC(=O)C(Cl)Cl)C(O)c1ccc([N+](=O)[O-])cc1)c1cccc(CN2CCOCC2)c1` (stereo not given) the figure was 55 min.
Consider `O=C(OCn1ncc2c(=O)[nH]cnc21)c1ccc(CN2CCOCC2)cc1`, for which the T1/2 (human, in vitro) is on record as 1.9 min.
Still for that read-out and setting: with `CC(=O)Nc1ccc(OC(=O)c2ccc(CN3CCN(C)CC3)cc2)cc1` the figure was 487 min.
